Here are results for three compounds from publication PMC10746543, “Design principles for cyclin K molecular glue degraders” (Nature Chemical Biology, 2023).

“And” between values parts separate entries of the source, which are not always exact repeats. Identical values can stand only once. Like-named read-outs stand apart in the source and are kept apart here. Bounds are passed on as bounds.

In one assay the target is T1, CDK12–cyclin K and DDB1 (Homo sapiens, UniProt Q16531+Q9NYV4, K965R).
T1 construct: His6–CDK12 (a.a. 713–1,052); full-length or beta-propeller B domain deletion (ΔBPB: a.a. 396–705 deleted) constructs of His6–DDB1ΔBPB, StrepII–Avi–DDB1, or His6–Spy–DDB1; made in house; host or cells: Trichoplusia ni High Five insect cells (baculovirus)
T1 sequence (Q9NYV4 713-1052 K965R): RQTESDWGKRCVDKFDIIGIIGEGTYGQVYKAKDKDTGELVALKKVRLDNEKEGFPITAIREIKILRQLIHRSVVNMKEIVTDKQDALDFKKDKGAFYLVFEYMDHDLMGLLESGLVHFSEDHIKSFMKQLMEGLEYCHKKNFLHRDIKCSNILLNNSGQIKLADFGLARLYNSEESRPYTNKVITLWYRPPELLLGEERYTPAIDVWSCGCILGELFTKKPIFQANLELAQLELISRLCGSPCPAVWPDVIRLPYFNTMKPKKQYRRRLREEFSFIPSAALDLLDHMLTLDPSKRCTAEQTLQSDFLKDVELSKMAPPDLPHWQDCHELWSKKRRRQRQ
T1 sequence (O75909 1-267 partner): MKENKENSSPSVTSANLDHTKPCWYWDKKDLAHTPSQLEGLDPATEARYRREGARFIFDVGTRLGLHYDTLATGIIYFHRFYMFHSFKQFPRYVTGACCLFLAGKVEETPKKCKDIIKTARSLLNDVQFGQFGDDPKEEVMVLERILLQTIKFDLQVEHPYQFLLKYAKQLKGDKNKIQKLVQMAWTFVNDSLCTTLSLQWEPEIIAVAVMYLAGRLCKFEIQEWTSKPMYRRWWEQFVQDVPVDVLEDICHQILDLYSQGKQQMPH
T1 sequence (Q16531 whole entry): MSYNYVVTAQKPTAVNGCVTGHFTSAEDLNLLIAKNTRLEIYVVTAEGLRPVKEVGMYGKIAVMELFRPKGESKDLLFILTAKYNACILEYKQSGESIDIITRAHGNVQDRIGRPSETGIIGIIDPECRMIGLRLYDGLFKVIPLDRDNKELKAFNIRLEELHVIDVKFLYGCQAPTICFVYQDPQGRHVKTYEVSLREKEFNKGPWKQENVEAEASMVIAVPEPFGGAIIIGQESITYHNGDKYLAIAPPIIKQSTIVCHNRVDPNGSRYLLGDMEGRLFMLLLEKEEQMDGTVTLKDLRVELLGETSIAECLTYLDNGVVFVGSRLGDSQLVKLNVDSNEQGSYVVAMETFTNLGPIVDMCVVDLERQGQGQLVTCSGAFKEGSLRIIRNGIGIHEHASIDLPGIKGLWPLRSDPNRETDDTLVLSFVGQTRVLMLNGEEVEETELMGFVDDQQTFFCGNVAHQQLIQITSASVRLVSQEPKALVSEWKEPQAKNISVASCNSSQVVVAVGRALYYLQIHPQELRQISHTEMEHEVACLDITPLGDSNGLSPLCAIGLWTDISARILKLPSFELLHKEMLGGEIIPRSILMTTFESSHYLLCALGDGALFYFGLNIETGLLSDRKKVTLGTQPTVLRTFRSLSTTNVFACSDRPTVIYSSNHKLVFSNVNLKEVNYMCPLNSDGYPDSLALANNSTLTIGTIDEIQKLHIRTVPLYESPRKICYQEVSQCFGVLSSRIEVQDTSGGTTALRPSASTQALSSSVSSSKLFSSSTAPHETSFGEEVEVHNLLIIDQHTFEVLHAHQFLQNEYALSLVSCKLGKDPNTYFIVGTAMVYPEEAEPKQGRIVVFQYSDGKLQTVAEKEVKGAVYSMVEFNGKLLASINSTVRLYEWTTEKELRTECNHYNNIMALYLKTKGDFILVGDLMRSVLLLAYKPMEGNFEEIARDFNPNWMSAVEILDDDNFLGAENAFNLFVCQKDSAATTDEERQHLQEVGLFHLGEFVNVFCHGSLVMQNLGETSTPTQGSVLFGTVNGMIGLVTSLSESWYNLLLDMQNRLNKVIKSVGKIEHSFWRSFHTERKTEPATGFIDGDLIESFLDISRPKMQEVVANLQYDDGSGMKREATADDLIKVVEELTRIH
The assay is described as follows: TR-FRET ternary complex formation assay (compound titration). The assay is classed as binding. As to conditions: for TR-FRET signal at compound concentration: replicate titrations. Summed up:
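A time delay of 70 μs preceded acquisition, limiting background fluorescence; the ratio of emission at 520 versus 490 nm gave the TR-FRET value.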
(In general: TR-FRET usually uses a lanthanide donor and a delayed reading to cut background.)

Assay [1] has as its system cyclin K–eGFP degradation reporter. Description: Cyclin K reporter stability analysis (dual-color cyclin K–eGFP reporter). The class given is cell-based, human. Summed up:
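Values reflect cyclin K–eGFP levels after a 5 h exposure, expressed as the green-to-red fluorescence ratio and scaled to three vehicle-treated controls. Measurements came from HEK293T–Cas9 reporter cells by flow cytometry.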

In another assay the test system is HEK293T cells. The assay is described as follows: Drug sensitivity assay (CellTiter-Glo viability) with or without MLN4924 pretreatment. The assay is classed as cell-based, human. As to conditions: Supplementary Table 2; for EC50: Homo sapiens, HEK-293T, HEK293T viability, 72 h, compound alone, read-out: Cellular assays EC50; for Toxicity rescue: MLN4924-mediated cytotoxicity rescue, 10 µM used where n.d. The method in brief:
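Cas9-expressing HEK293T cells receive either vehicle or 100 nM MLN4924, then compounds 2 h afterwards. After three days, luminescence-based viability is measured and calculated relative to DMSO.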
Background: Cellular ATP, detected with luciferase, serves as a proxy for viable cell number.

The mark [2] stands for this setting: compound concentration 79.2001 nM.
The mark [3] stands for this setting: compound concentration 158.4 nM.
The mark [4] stands for this setting: compound concentration 309.6 nM.
Where [5] appears, read: compound concentration 626.401 nM.
Where [6] appears, read: compound concentration 1252.8 nM.
[7] abbreviates: compound concentration 9936.01 nM.
The mark [8] stands for this setting: compound concentration 20016 nM.
[9] abbreviates: in vitro complex formation, 50 nM CDK12–cyclin K, 100 nM DDB1, text and figures, read-out: TR-FRET EC50.
Setting [10] is: sheet MOESM7, read-out: log TR-FRET EC50 (converted).
The mark [11] stands for this setting: source data sheet correlations, read-out: TR-FRET EC50.
The mark [12] stands for this setting: source data sheet correlations, read-out: DC50.

By EC50 is commonly meant the concentration giving half of the maximal effect. As a reminder, the DC50 is the concentration at which degradation of the target reaches its halfway point. In the case of `CCOCCOCCNc1nc(N[C@H](CC)CO)nc2c1ncn2C(C)C` [DS13], the TR-FRET signal was 0.1269 and 0.1552 at CDK12–cyclin K and DDB1 (compound concentration 4.68 nM); 0.1368 and 0.156 at CDK12–cyclin K and DDB1 (compound concentration 21.6 nM); 0.1404 and 0.1564 on CDK12–cyclin K and DDB1 (compound concentration 36 nM); 0.1332 and 0.164 at CDK12–cyclin K and DDB1 (setting [2]); 0.1494 and 0.1683 on CDK12–cyclin K and DDB1 (setting [3]); 0.1517 and 0.1802 at CDK12–cyclin K and DDB1 (setting [4]). Besides, the TR-FRET signal at CDK12–cyclin K and DDB1 (setting [5]) is 0.1772 and 0.1976; at CDK12–cyclin K and DDB1 (setting [6]) it was 0.2017 and 0.2255; at CDK12–cyclin K and DDB1 (compound concentration 2448 nM), 0.2403 and 0.2789; on CDK12–cyclin K and DDB1 (setting [7]), 0.333 and 0.3875; on CDK12–cyclin K and DDB1 (setting [8]), 0.3528 and 0.412. The EC50 is 3230 ± 959 nM on CDK12–cyclin K and DDB1 (setting [9]); greater than 10 µM in the assay with HEK293T cells. Moreover, in assay [1] (Supplementary Table 2, HEK293T cycK-eGFP reporter, 5 h, read-out: Cellular assays DC50), the DC50 is greater than 10 µM. In the assay with HEK293T cells, the Toxicity rescue worked out at 0%.
Regarding `CC[C@H](CO)Nc1nc(NCc2cnc(-c3ccccn3)cc2C2OCCO2)c2ncn(C(C)C)c2n1` [WX4], the “TR-FRET signal at compound concentration” value on CDK12–cyclin K and DDB1 (compound concentration 4.68 nM) is 0.2788 and 0.2836; at CDK12–cyclin K and DDB1 (compound concentration 21.6 nM) it was 0.5021 and 0.5027; at CDK12–cyclin K and DDB1 (compound concentration 36 nM), 0.8511 and 0.8473; at CDK12–cyclin K and DDB1 (setting [2]), 1.261 and 1.263; on CDK12–cyclin K and DDB1 (setting [3]), 1.515 and 1.577; at CDK12–cyclin K and DDB1 (setting [4]), 1.862 and 1.944. The “TR-FRET signal at compound concentration” value on CDK12–cyclin K and DDB1 (setting [5]) was 2.0566 and 2.128; on CDK12–cyclin K and DDB1 (setting [6]), 2.108 and 2.242; on CDK12–cyclin K and DDB1 (compound concentration 2448 nM), 2.161 and 2.2916; at CDK12–cyclin K and DDB1 (setting [7]) it was 2.174 and 2.318; on CDK12–cyclin K and DDB1 (setting [8]), 2.132 and 2.191. Besides, the EC50 at CDK12–cyclin K and DDB1 (setting [9]) is 79 ± 6 nM; on CDK12–cyclin K and DDB1 (setting [10]) it was 78.5 nM; on CDK12–cyclin K and DDB1 (setting [11]), 78.5 nM; in the assay with HEK293T cells it was 1.18 µM. For the same compound, in assay [1] (setting [12]), the DC50 is 0.365 µM. In the assay with HEK293T cells, the Toxicity rescue amounted to 432%.
On to `COc1ccccc1CCNC(=O)CNc1nc(NCc2ccc(-c3ccccn3)cc2)c2ncn(C(C)C)c2n1` [DS50], for which the “TR-FRET signal at compound concentration 4.68 nM” value at CDK12–cyclin K and DDB1 (compound concentration 4.68 nM, raw titration data) is 0.2095 and 0.2212. Further, the “TR-FRET signal at compound concentration 21.6 nM” value on CDK12–cyclin K and DDB1 (compound concentration 21.6 nM, raw titration data) is 0.2225 and 0.2323. For the same compound, the “TR-FRET signal at compound concentration 36 nM” value at CDK12–cyclin K and DDB1 (compound concentration 36 nM, raw titration data) was 0.253 and 0.2736. Further, the “TR-FRET signal at compound concentration 79.2001 nM” value at CDK12–cyclin K and DDB1 (compound concentration 79.2001 nM, raw titration data) is 0.3096 and 0.3199. For the same compound, the “TR-FRET signal at compound concentration 158.4 nM” value at CDK12–cyclin K and DDB1 (compound concentration 158.4 nM, raw titration data) is 0.4094 and 0.4186. Moreover, on CDK12–cyclin K and DDB1 (compound concentration 309.6 nM, raw titration data), the “TR-FRET signal at compound concentration 309.6 nM” value was 0.5758 and 0.5879. For the same compound, the “TR-FRET signal at compound concentration 626.401 nM” value at CDK12–cyclin K and DDB1 (compound concentration 626.401 nM, raw titration data) is 0.9565 and 0.9048. Also, at CDK12–cyclin K and DDB1 (compound concentration 1252.8 nM, raw titration data), the “TR-FRET signal at compound concentration 1252.8 nM” value is 1.567 and 1.497. The “TR-FRET signal at compound concentration 2448 nM” value at CDK12–cyclin K and DDB1 (compound concentration 2448 nM, raw titration data) is 2.482 and 2.457. For the same compound, the “TR-FRET signal at compound concentration 9936.01 nM” value at CDK12–cyclin K and DDB1 (compound concentration 9936.01 nM, raw titration data) is 3.626 and 3.7316. Moreover, the “TR-FRET signal at compound concentration 20016 nM” value on CDK12–cyclin K and DDB1 (compound concentration 20016 nM, raw titration data) was 3.761 and 3.946. In addition, the EC50 at CDK12–cyclin K and DDB1 (setting [10]) is 1920 nM; at CDK12–cyclin K and DDB1 (setting [11]) it was 1920 nM; in the assay with HEK293T cells, greater than 10 µM. Also, in assay [1] (setting [12]), the DC50 stood at 3.57 µM. For the same compound, in the assay with HEK293T cells, the Toxicity rescue was 0%.
